Laboratory results reported in ChEMBL document CHEMBL1135038, “Initial structure-activity relationship studies of a novel series of pyrrolo[1,2-a]pyrimid-7-ones as GnRH receptor antagonists” (Bioorg Med Chem Lett, 2002).

Tests used:
[1] = target: T1, Gonadotropin-releasing hormone receptor (Rattus norvegicus, UniProt P30969); assay: Binding affinity against gonadotropin-releasing hormone receptor of rat
T1 sequence (P30969 whole entry): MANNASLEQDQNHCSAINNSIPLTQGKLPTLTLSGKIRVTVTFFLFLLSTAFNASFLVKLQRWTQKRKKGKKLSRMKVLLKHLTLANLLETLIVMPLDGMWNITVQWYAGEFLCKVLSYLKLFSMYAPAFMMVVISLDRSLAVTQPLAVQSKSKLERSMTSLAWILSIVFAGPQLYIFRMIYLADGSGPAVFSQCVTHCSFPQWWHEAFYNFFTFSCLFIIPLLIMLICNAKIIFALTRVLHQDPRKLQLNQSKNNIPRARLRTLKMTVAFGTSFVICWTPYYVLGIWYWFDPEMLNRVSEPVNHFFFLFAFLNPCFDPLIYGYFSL

[2] = target: T2, Gonadotropin-releasing hormone receptor (Homo sapiens, UniProt P30968); assay: Binding affinity against human GnRH receptor expressed in HEK293 cells using des-Gly10[125I]Tyr5, D-Leu, NMeLeu, Pro-NEt GnRH as radioligand.; type: cell-based
T2 sequence (P30968 whole entry): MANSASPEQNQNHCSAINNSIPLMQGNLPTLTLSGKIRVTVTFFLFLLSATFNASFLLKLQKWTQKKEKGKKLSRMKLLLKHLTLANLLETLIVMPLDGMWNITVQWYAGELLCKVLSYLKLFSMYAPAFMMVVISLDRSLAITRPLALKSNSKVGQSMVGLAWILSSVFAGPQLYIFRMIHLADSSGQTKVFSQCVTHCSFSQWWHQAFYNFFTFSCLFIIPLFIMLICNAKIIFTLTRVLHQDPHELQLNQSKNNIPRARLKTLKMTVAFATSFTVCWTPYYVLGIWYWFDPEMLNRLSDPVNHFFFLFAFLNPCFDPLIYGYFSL

[3] = target: T2, Gonadotropin-releasing hormone receptor; assay: Inhibitory activity against human GnRH receptor using des-Gly10[125I]Tyr5, D-Leu, NMeLeu, Pro-NEt]GnRH radioligand

Compound | Ki [2] | other results
CCC(CC)OC(=O)c1cn(Cc2ccccc2F)c2c(C#N)c(-c3ccc(OC4CCCC4)cc3)c(CN(C)CCc3ccccn3)n2c1=O | 31 nM | Ki [1]: 7600 nM
CCOC(=O)c1cn(Cc2ccccc2F)c2c(C#N)c(-c3ccc(OC)cc3)c(CN(C)Cc3ccccc3)n2c1=O | 1800 nM | 
CCOC(=O)c1cn(Cc2ccccc2)c2c(C#N)c(-c3ccc(OC)cc3)c(CN(C)C)n2c1=O | > 50000 nM | 
COc1ccc(-c2c(C#N)c3n(Cc4ccccc4F)cc(C(=O)OC(C4CC4)C4CC4)c(=O)n3c2CN(C)CCc2ccccn2)cc1 | 2500 nM | 
CCOC(=O)c1cn(Cc2c(F)cccc2F)c2c(C#N)c(-c3ccc(OCC(C)C)cc3)c(CN(C)CCc3ccccn3)n2c1=O | 800 nM | 
Cc1cc(-c2c(O)nc3ccc(C(=O)Nc4ccncn4)cc3c2OCC[C@@H]2CCN2)cc(C)c1C |  | IC50 [1]: 4 nM; IC50 [3]: 0.4 nM
CCOC(=O)c1cn(Cc2ccccc2C#N)c2c(C#N)c(-c3ccc(OC)cc3)c(CN(C)CCc3ccccn3)n2c1=O | 4900 nM | 
CCOC(=O)c1cn(Cc2ccc(F)cc2F)c2c(C#N)c(-c3ccc(OCC(C)C)cc3)c(CN(C)CCc3ccccc3)n2c1=O | > 50000 nM | 
COc1ccc(-c2c(C#N)c3n(Cc4ccccc4F)cc(C(=O)OC(C)C)c(=O)n3c2CN(C)CCc2ccccn2)cc1 | 400 nM | 
CCC(CC)OC(=O)c1cn(Cc2ccccc2F)c2c(C#N)c(-c3ccc(OCC(C)C)cc3)c(CN(C)CCc3ccccn3)n2c1=O | 25 nM | Ki [1]: 7300 nM
CCOC(=O)c1cn(Cc2c(F)cccc2F)c2c(C#N)c(-c3ccc(OC)cc3)c(CN(C)CCc3ccccn3)n2c1=O | 2000 nM | 
CCOC(=O)c1cn(Cc2ccc(F)cc2F)c2c(C#N)c(-c3ccc(OCC(C)C)cc3)c(CN(C)CCc3ccccn3)n2c1=O | 400 nM | 
CCOC(=O)c1cn(Cc2cccc(F)c2F)c2c(C#N)c(-c3ccc(OC)cc3)c(CN(C)CCc3ccccn3)n2c1=O | 2400 nM | 
CCOC(=O)c1cn(Cc2ccc(F)cc2F)c2c(C#N)c(-c3ccc(OCC(C)C)cc3)c(CN(C)CCc3ccncc3)n2c1=O | > 50000 nM | 
CCC(CC)OC(=O)c1cn(Cc2ccccc2F)c2c(C#N)c(-c3ccc(OC)cc3)c(CN(C)CCc3ccccn3)n2c1=O | 180 nM | Ki [1]: 7700 nM
Cc1cc(C)cc(-c2[nH]c3ccccc3c2CCNCCCCc2ccc(NS(C)(=O)=O)cc2)c1 |  | IC50 [1]: 170 nM; IC50 [3]: 7 nM

Compound | Ki [2] | other results
CN(CCc1ccccn1)Cc1c(-c2ccc(OC3CCCC3)cc2)c(C#N)c2n(Cc3ccccc3F)cc(C(=O)OC3CCCC3)c(=O)n12 | 33 nM | Ki [1]: 8900 nM
CCOC(=O)c1cn(Cc2ccccc2OC)c2c(C#N)c(-c3ccc(OCC(C)C)cc3)c(CN(C)CCc3ccccn3)n2c1=O | 2200 nM | 
CCOC(=O)c1cn(Cc2ccccc2)c2c(C#N)c(-c3ccc(OC)cc3)c(CN(C)CCc3ccccn3)n2c1=O | 2600 nM | 
CCOC(=O)c1cn(Cc2cc(F)ccc2F)c2c(C#N)c(-c3ccc(OCC(C)C)cc3)c(CN(C)CCc3ccccn3)n2c1=O | 1200 nM | 
CCOC(=O)c1cn(Cc2ccccc2Cl)c2c(C#N)c(-c3ccc(OC)cc3)c(CN(C)CCc3ccccn3)n2c1=O | 8500 nM | 
CCOC(=O)c1cn(Cc2ccc(F)cc2F)c2c(C#N)c(-c3ccc(OC)cc3)c(CN(C)CCc3ccccn3)n2c1=O | 3700 nM | 
CCOC(=O)c1cn(Cc2ccccc2F)c2c(C#N)c(-c3ccc(OCC(C)C)cc3)c(CN(C)CCc3ccccn3)n2c1=O | 100 nM | 
CCOC(=O)c1cn(Cc2ccc(F)cc2F)c2c(C#N)c(-c3ccc(OCC(C)C)cc3)c(CN(C)CCc3cccnc3)n2c1=O | 28000 nM | 
CCOC(=O)c1cn(Cc2ccccc2OC)c2c(C#N)c(-c3ccc(OC)cc3)c(CN(C)CCc3ccccn3)n2c1=O | 6600 nM | 
CCOC(=O)c1cn(Cc2cc(F)ccc2F)c2c(C#N)c(-c3ccc(OC)cc3)c(CN(C)CCc3ccccn3)n2c1=O | 6000 nM | 
CCOC(=O)c1cn(Cc2ccccc2F)c2c(C#N)c(-c3ccc(OC)cc3)c(CN(C)CCc3ccccn3)n2c1=O | 500 nM | 
COc1ccc(-c2c(C#N)c3n(Cc4ccccc4F)cc(C(=O)OC4CCCC4)c(=O)n3c2CN(C)CCc2ccccn2)cc1 | 260 nM | 
CCOC(=O)c1cn(Cc2ccccc2)c2c(C#N)c(-c3ccc(OC)cc3)c(CN(C)Cc3ccccc3)n2c1=O | 42000 nM | 
CCOC(=O)c1cn(CC2CC2)c2c(C#N)c(-c3ccc(OC)cc3)c(CN(C)CCc3ccccn3)n2c1=O | > 50000 nM | 
COc1ccc(-c2c(C#N)c3n(Cc4ccccc4F)cc(C(=O)OC4CCOC4)c(=O)n3c2CN(C)CCc2ccccn2)cc1 (configuration not stated) | 2100 nM | 
